Here are results for four compounds from patent publication US10328079B2, “[6R]-MTHF multiple bolus administration in 5-fluorouracil based chemotherapy” (Isofol Medical AB, priority 2017, dated 2019).

Where two headings read alike, the source gives them in different places.

In one data set the target is Thymidylate Synthase (Lacticaseibacillus casei, UniProt P00469). The settings on record: cited from earlier work.
The next data set deals with colorectal cancer. The conditions noted are these: cited from earlier work; for ORR: Phase IIb, first-line patients, in combination with 5-FU.
In a further data set the test system is colorectal tumors. The settings on record: cited from earlier work.
Data set [1] deals with thymidylate synthase (TS). Briefly: Historical group comparison study: incremental plasma dUrd (marker of TS inhibition) 24 h after 5-FU bolus plus folate. In kind it is in vivo, human. The settings on record: LV 60 mg/m^2 BSA (racemate; active compound 30 mg/m^2), bolus with 5-FU 500 mg/m^2, 24 hours, n=48. As to the method:
The elevation of plasma 2′-deoxyuridine (dUrd) is a marker of TS inhibition. (Ford et al. (2002) Clinical Cancer Research, 8(1): 103-109).
The historical group comparison study was conducted as follows:
All patients were treated with a standard dose of 500 mg 5-FU given as a bolus injection plus the respective folate [6R]-MTHF or LV, also given as bolus injections.
In Gothenburg (Sweden), for almost two decades, clinical, treatment and outcomes data on all patients with CRC have been collected at the local university hospital (Östra sjukhuset—Sahlgrenska Universitetssjukhuset). Plasma and tissue samples have been stored in a biobank under appropriate physical conditions for long term storage. The database and the biobank operate under the auspices of the relevant ethical and regulatory permissions. Patients having been treated with the standard 5-FU dose, 500 mg/m2 plus i.v. bolus LV, 60 mg/m2 were randomly drawn from the databank. For all patients, stored plasma samples were used for determination of dUrd.
Twenty-four patients with metastatic colorectal cancer (mCRC) treated with 5-FU plus 60 mg/m^2 LV were drawn at random from the database and levels of dUrd were determined at t0 and t24 from two treatment cycles for each patient and the mean values and standard deviations for the differences between t24 and t0 were calculated in the same way as for the [6R]-MTHF patients. Since LV is a “racemic” 50:50 mixture of the natural (S-formyl-tetrahydrofolate) and unnatural (R-formyl-tetrahydrofolate) isomers, the active isomer constitutes one half of the racemic LV doses given. The molecular weights for LV and [6R]-MTHF are very similar and therefore 60 mg of LV may be considered as equimolar with 30 mg of [6R]-MTHF.
All patients were enrolled in the ISO-CC-005 study and measured during two consecutive treatment cycles with 5-FU. Values for dUrd were measured immediately before injection of 5-FU (to) and after 24 hours (t24). Mean values and standard deviations for differences between t24 and to were calculated for the patients on each dose level of 30 and 60 mg/m^2 respectively.
The differences between all three groups were tested by means of the […] and thereafter the difference between the two equimolar groups LV 60 mg/m2 and 6R-MTHF 30 mg/m^2 was tested by means of the Mann-Whitney U test. P-values less than 0.05 were considered significant.
Plasma dUrd was determined by a method comprising liquid chromatography followed by tandem mass spectrometry broadly summarized as follows. Plasma samples were removed from −80° C. freezer, trichloroacetic acid was added to the plasma, and the samples mixed and centrifuged. The supernatant was filtered in a 10 kDa molecular weight cut-off membrane filter and again centrifuged for 30 min. The solution at the bottom of the tube was then ready for LC-MS/MS analysis. Calibration samples were prepared in the same way using blank plasma samples and different internal standard concentrations. The injection volume into LC-MS/MS was 40 μl. Deoxyuridine and chlorodeoxyuridine were ionized by electrospray negative mode. MS parameters were optimized for maximum response of all folates. A MS/MS acquisition method (multiple reaction monitoring) was utilized.

For data set [2] the following is noted: Phase IIb, first-line patients, in combination with 5-FU; cited from earlier work.
In the next data set the test system is solid tumors. The settings on record: cited from earlier work.
In data set [3] the test system is advanced and recurring head and neck squamous cell cancer. The settings on record: 5-FU in combination therapies with platinum compounds; cited from earlier work.
Another data set concerns pancreas cancer. The settings on record: CoFactor combined with 5-FU; cited from earlier work.
Data set [4] has as its system previously untreated metastatic colorectal cancer. The conditions noted are these: Phase II Trial; cited from earlier work.

Sequence of Thymidylate Synthase (P00469 whole entry): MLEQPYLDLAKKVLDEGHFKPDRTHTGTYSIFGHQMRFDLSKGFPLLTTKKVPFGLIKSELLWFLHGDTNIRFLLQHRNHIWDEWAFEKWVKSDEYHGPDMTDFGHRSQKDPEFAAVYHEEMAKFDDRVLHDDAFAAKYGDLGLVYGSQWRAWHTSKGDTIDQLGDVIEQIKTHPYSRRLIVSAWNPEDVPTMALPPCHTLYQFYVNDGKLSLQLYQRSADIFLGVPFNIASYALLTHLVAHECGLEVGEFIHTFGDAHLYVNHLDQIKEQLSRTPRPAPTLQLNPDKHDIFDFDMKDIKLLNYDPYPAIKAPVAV

Take `Nc1nc2c(c(=O)[nH]1)N1CN(c3ccc(C(=O)N[C@@H](CCC(=O)O)C(=O)O)cc3)C[C@@H]1CN2` [[6S]-MTHF]: the “effect on the natural [6R]-isomer as co-substrate for TS” value on Thymidylate Synthase was “partial competitive inhibitor”.
Regarding `Nc1nc2c(c(=O)[nH]1)N(C=O)C(CNc1ccc(C(=O)N[C@@H](CCC(=O)O)C(=O)O)cc1)CN2` (stereo partly drawn) [LV, 5-formyl tetrahydrofolic acid], the ORR in the data set on colorectal cancer is 13.3%. Moreover, in the data set with colorectal tumors (Leucovorin (LV) added to 5-FU), the response rate is 21%. For the same compound, in data set [1], the “Mean (t24-t0) plasma dUrd” value was found to be 48.7 pmol/mL. Also, the “patients reporting at least one AE of grade 3 or greater” value in [2] is reported as 3.3%. Also, the overall response rates entry in the data set on solid tumors (LV added to 5-FU) is on record as “over 20%”.
Regarding `O=c1[nH]cc(F)c(=O)[nH]1` [5-FU, 5-fluorouracil], the response rate result in the data set with colorectal tumors (5-FU given as a monotherapy) was “around 10%”. Besides, the overall response rate in the data set on solid tumors (5-FU alone) is recorded as 10-15%. In data set [3], the Response rates result is “around 30%” and the survival time result is listed as “around 6 months”.
On to `Nc1nc(=O)c2c([nH]1)NCC1CN(c3ccc(C(=O)N[C@@H](CCC(=O)[O-])C(=O)[O-])cc3)CN21.[Ca+2]` (stereo partly drawn) [CoFactor, (dl)-5,10,-methylenepteroyl-monoglutamate calcium salt], for which the “clinical benefit, defined as stable disease or tumor response, patients” value with pancreas cancer is 40%. Besides, in the data set on colorectal cancer (Phase IIb study, colorectal cancer), the “efficacy and safety compared with leucovorin” value is recorded as “no significant differences”. Moreover, the ORR in the data set with colorectal cancer was 10.7%. Also, the “patients reporting at least one AE of grade 3 or greater” value in [2] is 7.7%. Moreover, in data set [4], the response rate is 35%.
